# Results taken from paper PMC8174486, “Synthesis and preliminary structure-activity relationship study of 3-methylquinazolinone derivatives as EGFR inhibitors with enhanced antiproliferative activities against tumour cells” (Journal of Enzyme Inhibition and Medicinal Chemistry, 2021).
# How the values were obtained:
# A549 cells = experiment: MTT antiproliferative assay, A549; type: cell-based; conditions: Homo sapiens, mean ± SD of three replicates
# Experimental: (§1) A431 (Human epidermoid carcinoma cell line) cell, A549 (Human non-small cell lung cancer cell line) cell, MCF-7 (Human breast adenocarcinoma cell line) cell, and NCI-H1975 (Human non-small cell lung cancer cell line) cell were purchased from the Shanghai Cell Bank of the Chinese Academy of Sciences. NRK-52E (Normal rat kidney cell line) cell was donated by Guizhou Medical University.
# (§2) The IC50 value was determined from a sigmoid dose − response curve using Graph-Pad Prism (GraphPad Software, San Diego, CA).
# EGFR^wt-TK = molecular target: T1, EGFR^wt-TK (Homo sapiens, UniProt P00533); experiment: In vitro EGFR^wt-TK assay (ELISA); type: biochemical; conditions: mean ± SD of three replicates
# T1 construct: The recombinant EGFR^wt-TK and Antiphosphotyrosine mouse mAb were purchased from PTM Bio; purchased PTM Bio
# Experimental: Enzymatic inhibition of synthesised compounds against wild type EGFR tyrosine kinase was determined with enzyme-linked immunosorbent assays (ELISAs) as our previous methods. The recombinant EGFR^wt-TK and Antiphosphotyrosine mouse mAb were purchased from PTM Bio. The IC50 value was determined from a sigmoid dose − response curve using Graph-Pad Prism (GraphPad Software, San Diego, CA).
# A431 cells = experiment: MTT antiproliferative assay, A431; type: cell-based, human; conditions: mean ± SD of three replicates
# Experimental: as §1, §2
# NCI-H1975 cells = experiment: MTT antiproliferative assay, NCI-H1975; type: cell-based; conditions: Homo sapiens, mean ± SD of three replicates
# Experimental: as §1, §2
# MCF-7 cells [1] = experiment: MTT antiproliferative assay, MCF-7; type: cell-based; conditions: Homo sapiens, MCF7, mean ± SD of three replicates
# Experimental: as §1, §2
# MCF-7 cells [2] = experiment: Cell cycle analysis (flow cytometry); type: cell-based, human; conditions: MCF-7, 5 μM, 48 h
# [3] = Stability in mice plasma (HPLC); type: in vitro ADME; conditions: 37 °C, 60 min
# Experimental: HPLC procedures and spectra
# A 2.5 mL centrifuge tube was added 300 µL plasma derived from normal […] (7 weeks, male), and 30 µL compound A or compound 4d in ethanol (50 mM). The mixture was incubated at 37 °C for 60 min, and then treated with 300 µL of CH3CN, separated in centrifugation at 30000 rpm for 10 min. The supernatant was treated with the same procedure for another time and analyzed in HPLC using C18 column (4.6 mm x 250 mm) and mobile phase of CH3CN/H2O (90 : 10) with a flow rate of 1.5 mL/min.
# Fig. S1 Metabolic stability in plasma of compound A
# Fig. S2 Metabolic stability in plasma of compound 4d […]
# MCF-7 cells [4] = experiment: Cell apoptosis analysis (Annexin V-FITC/PI flow cytometry); type: cell-based, human; conditions: MCF-7, 5 μM, 48 h
# T1 sequence (P00533 25-1210): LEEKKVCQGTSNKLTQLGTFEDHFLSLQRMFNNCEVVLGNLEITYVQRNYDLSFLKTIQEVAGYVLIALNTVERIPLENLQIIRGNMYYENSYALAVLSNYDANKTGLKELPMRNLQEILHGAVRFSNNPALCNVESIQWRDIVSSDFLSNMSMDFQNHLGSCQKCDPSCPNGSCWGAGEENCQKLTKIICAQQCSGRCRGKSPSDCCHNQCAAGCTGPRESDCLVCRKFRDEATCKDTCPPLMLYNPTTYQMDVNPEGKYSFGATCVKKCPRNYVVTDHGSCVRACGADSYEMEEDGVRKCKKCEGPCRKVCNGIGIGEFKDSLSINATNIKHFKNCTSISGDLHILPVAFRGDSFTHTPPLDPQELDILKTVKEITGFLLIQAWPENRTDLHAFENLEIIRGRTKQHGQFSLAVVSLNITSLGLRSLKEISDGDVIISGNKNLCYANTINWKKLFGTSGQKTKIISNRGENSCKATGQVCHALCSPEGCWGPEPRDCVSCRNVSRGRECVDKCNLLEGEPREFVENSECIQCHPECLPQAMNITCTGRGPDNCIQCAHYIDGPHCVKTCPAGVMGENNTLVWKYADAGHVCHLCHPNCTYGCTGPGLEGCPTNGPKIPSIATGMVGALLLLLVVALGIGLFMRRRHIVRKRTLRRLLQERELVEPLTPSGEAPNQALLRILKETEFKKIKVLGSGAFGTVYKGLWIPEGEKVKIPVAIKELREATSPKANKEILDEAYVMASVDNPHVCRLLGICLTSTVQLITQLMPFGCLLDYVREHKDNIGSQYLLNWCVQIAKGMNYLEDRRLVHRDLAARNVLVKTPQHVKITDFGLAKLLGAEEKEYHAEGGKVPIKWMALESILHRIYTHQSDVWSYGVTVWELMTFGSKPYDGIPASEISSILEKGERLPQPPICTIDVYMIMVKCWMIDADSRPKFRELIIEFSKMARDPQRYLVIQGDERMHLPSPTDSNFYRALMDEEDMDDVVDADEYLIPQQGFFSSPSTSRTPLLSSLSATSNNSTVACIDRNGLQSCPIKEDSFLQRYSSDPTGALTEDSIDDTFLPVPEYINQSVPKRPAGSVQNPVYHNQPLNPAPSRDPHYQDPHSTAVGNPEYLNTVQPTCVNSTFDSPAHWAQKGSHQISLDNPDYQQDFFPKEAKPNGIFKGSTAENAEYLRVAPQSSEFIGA
IC50 (A549 cells) [µM],IC50 (EGFR^wt-TK) [µM],"IC50 (A431 cells; Homo sapiens, A-431, MTT) [µM]",IC50 (A431 cells; MTT) [µM],IC50 (NCI-H1975 cells) [µM],melting point [°C],IC50 (MCF-7 cells [1]) [µM],stability in mice plasma ([3]; SD mice plasma),purity after incubation with mice plasma ([3]; Sprague Dawley (SD) mice plasma),Structure (SMILES),percentage of cells in G2/M (MCF-7 cells [2]) [%],ratio of apoptotic cells (late) (MCF-7 cells [4]) [%]
8.63 ± 0.41,2.71 ± 0.22,9.32 ± 0.57,–,13.7 ± 1.61,208 to 209,10.6 ± 1.03,–,–,"Cn1c(COc2ccc(/C=C/C(=O)c3cccc(F)c3)cc2)nc2ccccc2c1=O [Compound 4a, (E)-2-((4–(3-(3-Fluorophenyl)-3-oxoprop-1-enyl)phenoxy)methyl)-3-methylquinazolin-4(3H)-one]",–,–
17.9 ± 2.11,–,17.7 ± 2.08,–,19.2 ± 3.02,–,14.1 ± 1.85,not stable,–,"Cn1c(COc2ccc(/C=N/c3cccc(F)c3)cc2)nc2ccccc2c1=O [A, reference compound]",–,–
4.26 ± 0.57,0.2 ± 0.041,6.79 ± 0.72,–,6.44 ± 0.85,160 to 162,6.04 ± 0.73,–,–,"Cn1c(COc2ccc(/C=C/c3cccc(F)c3)cc2)nc2ccccc2c1=O [Compound 4c, (E)-2-((4-(3-Fluorostyryl)phenoxy)methyl)-3-methylquinazolin-4(3H)-one]",–,–

# Second part, the compound before the results:
Structure (SMILES),IC50 (A549 cells) [µM],IC50 (EGFR^wt-TK) [µM],"IC50 (A431 cells; Homo sapiens, A-431, MTT) [µM]",IC50 (A431 cells; MTT) [µM],IC50 (NCI-H1975 cells) [µM],melting point [°C],IC50 (MCF-7 cells [1]) [µM],stability in mice plasma ([3]; SD mice plasma),purity after incubation with mice plasma ([3]; Sprague Dawley (SD) mice plasma),percentage of cells in G2/M (MCF-7 cells [2]) [%],ratio of apoptotic cells (late) (MCF-7 cells [4]) [%]
"Cn1c(COc2ccc(NC(=O)Nc3cccc(F)c3)cc2)nc2ccccc2c1=O [Compound 4g, 1-(3-Fluorophenyl)-3-(4-((3-methyl-4-oxo-3,4-dihydroquinazolin-2-yl)methoxy)phenyl)urea]",7.31 ± 0.59,0.71 ± 0.093,8.34,8.35 ± 0.46,10.2 ± 1.03,195 to 196,10.7 ± 2.07,–,–,–,–
"COc1cc2ncnc(Nc3ccc(F)c(Cl)c3)c2cc1OCCCN1CCOCC1 [Gefitinib, reference compound]",–,–,–,–,–,–,–,–,–,11.58,–
"Cn1c(COc2ccc(NC(=O)/C=C/c3ccc(F)c(F)c3)cc2)nc2ccccc2c1=O [Compound 4f, (E)-3-(3,4-Difluorophenyl)-N-(4-((3-methyl-4-oxo-3,4-dihydroquinazolin-2-yl)methoxy)phenyl)acrylamide]",8.46 ± 0.67,0.38 ± 0.075,8.76 ± 0.74,–,9.33 ± 0.78,235 to 236,2.84 ± 0.22,–,–,–,–
"Cn1c(COc2ccc(C(=O)Nc3cccc(F)c3)cc2)nc2ccccc2c1=O [Compound 4b, N-(3-Fluorophenyl)-4-((3-methyl-4-oxo-3,4-dihydroquinazolin-2-yl)methoxy)benzamide]",9.08 ± 0.69,1.63 ± 0.15,8.72 ± 0.46,–,12.9 ± 1.44,196 to 197,9.64 ± 0.88,–,–,–,–
"Cn1c(COc2ccc(NC(=O)c3ccc(F)c(F)c3)cc2)nc2ccccc2c1=O [Compound 4e, 3,4-Difluoro-N-(4-((3-methyl-4-oxo-3,4-dihydroquinazolin-2-yl)methoxy)phenyl)benzamide]",2.69 ± 0.32,0.061 ± 0.007,3.53 ± 0.34,–,7.18 ± 0.49,248 to 249,0.96 ± 0.21,–,–,–,–
"Cn1c(COc2ccc(NC(=O)c3cccc(F)c3)cc2)nc2ccccc2c1=O [Compound 4d, 3-Fluoro-N-(4-((3-methyl-4-oxo-3,4-dihydroquinazolin-2-yl)methoxy)phenyl)benzamide]",2.55 ± 0.26,0.053 ± 0.008,3.48 ± 0.49,–,6.42 ± 0.47,228 to 229,0.87 ± 0.14,–,higher than 98%,10.38,41.36
